Measured values reported in patent publication US20170342312A1, “COMPOSITION AND METHOD FOR VISCOSITY CONTROL IN DELIVERY APPLICATIONS USING SUBSEA UMBILICALS” (BAKER HUGHES, A GE COMPANY, LLC, priority 2016, published 2017).
Where “and” joins values, the source holds several entries; their conditions need not be identical. Equal entries are not always repeated. Where two headings read alike, the source gives them in different places.

Columns and labels:
Solvent flash point = format: physicochemical
[1] = Solvent viscosity at 20° C.; format: physicochemical; settings: 20° C./1 Bar
Solvent freezing point = format: physicochemical
[2] = Corrosion rate, autoclave tests; settings: corrosion values of Tables 2 and 3
Description: The corrosion rates shown in Table 2 were obtained using autoclave tests at 80° C., a partial pressure of CO2 of 0.75 bar, a brine/hydrocarbon ratio of 99 to 1 and a shear stress of 60 Pa.

fish = settings: according to MSDS; cited from earlier work
[3] = according to MSDS; cited from earlier work
algae = settings: according to MSDS; cited from earlier work
[4] = according to MSDS; cited from earlier work; remark: listed apart in the source
invertebrates = settings: in vivo; cited from earlier work
[5] = at 20° C.; background statement; cited from earlier work
[6] = listed as ethylene glycol n-butyl ether acetate

Structure (SMILES)	Flash Point (Solvent flash point)	Viscosity [1]	Freezing Point (Solvent freezing point)	also measured
CCCCOCCO [Butyl Cellosolve ™, ethylene glycol monobutyl ether]	67.0 °C	2.9 cP	−75.0 °C	
CCCCOCCOC(C)=O [Ethylene Glycol N-Butyl Ether Acetate, ethylene glycol n-butyl ether acetate]	78 °C	1.81 cP	−64.0 °C	effect of solvent on performance of the corrosion inhibitors [2]: did not significantly affect the performance of the corrosion inhibitors; LC50 for fish (fish): > 10 µg/mL; Flash Point (Solvent flash point; [6]): about 78 °C; Viscosity [1, 6]: 1.79 cP and 1.81 cP; Freezing Point (Solvent freezing point; [6]): about −64 °C; biodegradable in seawater [3]: 77-90%; EbC50 for algae (algae): > 10 mg/L; Log Pow bioaccumulation potential [4]: less than 3; EC50 for invertebrates (invertebrates): > 10 µg/mL
CC(C)O [Isopropanol]	14 °C	2.1 cP	−89.0 °C	
CO [Methanol]	12 °C	0.59 cP	−97.8 °C	
OCCO [Monoethylene Glycol]	116 °C	17.3 cP	−13.0 °C	Viscosity [5]: 17 cP
CC(O)CO (stereo not drawn) [Propylene Glycol]	99.0 °C	55.0 cP	−59.0 °C	
O [Water]		0.895 cP	0 °C	
